# Laboratory results as given in ChEMBL document CHEMBL3045624, “Quantitative structureactivity relationships for estimating the aryl hydrocarbon receptor binding affinities of resveratrol derivatives and the antioxidant activities of hydroxystilbenes” (Med Chem Res, 2010).
# pEC50, pKi: −log10 of the molar value.
# Assays:
# [1] = Antioxidant activity assessed as inhibition rate constant in AAPH-induced human LDL peroxidation; assay type: functional
# [2] = Antioxidant activity assessed as time required to inhibit Cu2+-induced human LDL peroxidation; assay type: functional
# [3] = Antioxidant activity assessed as time required to inhibit AAPH-induced human LDL peroxidation; assay type: functional
# [4] = Antioxidant activity assessed as superoxide scavenging activity in riboflavin light-NBT system; assay type: functional
# [5] = Antioxidant activity in CTAB micelles assessed as time required to inhibit AAPH-induced linoleic acid peroxidation; assay type: functional
# [6] = Antioxidant activity in CTAB micelles assessed as inhibition rate constant for AAPH-induced linoleic acid peroxidation; assay type: functional
# [7] = Antioxidant activity in SDS micelles assessed as time required to inhibit AAPH-induced linoleic acid peroxidation; assay type: functional
# [8] = Antioxidant activity in SDS micelles assessed as inhibition rate constant for AAPH-induced linoleic acid peroxidation; assay type: functional
# [9] = Antioxidant activity assessed as inhibition rate constant for reaction with peroxyl radicals; assay type: functional
# [10] = target: T1, Aryl hydrocarbon receptor (Homo sapiens, UniProt P35869); assay: Binding affinity to aryl hydrocarbon receptor (unknown origin); conditions: read-out: Ki(app)
# T1 sequence (P35869 whole entry): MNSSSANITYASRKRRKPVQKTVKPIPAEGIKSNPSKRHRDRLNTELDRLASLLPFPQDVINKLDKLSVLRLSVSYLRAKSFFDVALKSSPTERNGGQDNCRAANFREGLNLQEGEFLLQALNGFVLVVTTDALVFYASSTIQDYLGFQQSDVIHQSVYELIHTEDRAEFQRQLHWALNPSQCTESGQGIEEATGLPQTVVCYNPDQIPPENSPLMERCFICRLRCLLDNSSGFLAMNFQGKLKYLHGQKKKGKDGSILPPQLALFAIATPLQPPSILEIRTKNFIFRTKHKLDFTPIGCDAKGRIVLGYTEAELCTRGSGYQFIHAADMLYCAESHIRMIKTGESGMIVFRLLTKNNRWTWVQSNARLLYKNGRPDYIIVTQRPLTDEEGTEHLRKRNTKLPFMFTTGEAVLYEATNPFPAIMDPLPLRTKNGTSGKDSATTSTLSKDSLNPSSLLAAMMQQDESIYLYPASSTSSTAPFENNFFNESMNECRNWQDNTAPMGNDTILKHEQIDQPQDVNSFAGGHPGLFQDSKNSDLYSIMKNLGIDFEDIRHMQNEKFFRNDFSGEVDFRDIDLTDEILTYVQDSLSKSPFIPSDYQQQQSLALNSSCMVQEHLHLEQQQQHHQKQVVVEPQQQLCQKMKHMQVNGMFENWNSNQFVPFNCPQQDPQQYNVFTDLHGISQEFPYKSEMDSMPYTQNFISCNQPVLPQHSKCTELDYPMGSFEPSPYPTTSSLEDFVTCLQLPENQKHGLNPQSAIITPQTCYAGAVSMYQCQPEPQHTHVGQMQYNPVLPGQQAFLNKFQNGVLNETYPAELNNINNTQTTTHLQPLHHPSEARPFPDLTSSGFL
# Liver microsome = assay: Antioxidant activity in Rattus norvegicus Wistar (rat) liver microsomes assessed as inhibition of Fe2+/ascorbate-induced lipid peroxidation incubated for 10 min prior to Fe2+/ascorbate induction measured after 60 min by TBARS assay; assay type: functional
# [11] = system: Radical scavenging activity; assay: Antioxidant activity assessed as inhibition of DPPH free radical formation; assay type: functional; parameters: concentration or dose not given beside the values; conditions: dose or concentration not given here
# [12] = Antioxidant activity assessed as time required to induce lipid oxidation by Rancimat method; assay type: functional
# [13] = Antioxidant activity assessed as decrease in initial quantity of DPPH measured up to 6 hr by spectrophotometric analysis; assay type: functional
smiles,measurement,setting,value
Oc1ccc(/C=C/c2ccccc2)c(O)c1,INH,[1],6.2 ×10⁵ L/mol/s
same,TIME,[2],0.883 h
same,TIME,[3],0.292 h
O=C(/C=C/c1cc(O)c(O)c(O)c1)Oc1cc(O)cc(/C=C/c2ccc(O)cc2)c1,IC50,[4],10 µg/mL
Oc1cc(/C=C/c2ccccc2)cc(O)c1O,TIME,[5],2.9 ×10³ s
same,INH,[6],1.3 ×10⁴ L/mol/s
same,TIME,[7],2.4 ×10³ s
same,INH,[8],3.1 ×10⁴ L/mol/s
Oc1ccc(/C=C/c2ccccc2)cc1O,INH,[1],4.9 ×10⁵ L/mol/s
same,TIME,[2],1.77 h
same,TIME,[3],0.65 h
same,TIME,[5],4.1 ×10³ s
same,INH,[6],0.9 ×10⁴ L/mol/s
same,TIME,[7],4.9 ×10³ s
same,INH,[8],2.9 ×10⁴ L/mol/s
O=C(Oc1cc(O)cc(/C=C/c2ccc(O)cc2)c1)c1cc(O)c(O)c(O)c1,IC50,[4],16 µg/mL
COc1cc(/C=C\c2cc(C(C)(C)C)c(O)c(C(C)(C)C)c2)cc(OC)c1,INH,[9],2.3 ×10⁴ L/mol/s
COc1cc(/C=C\c2ccc(O)c(O)c2)cc(OC)c1,INH,[9],76 ×10⁴ L/mol/s
O=C(/C=C/c1ccc(O)c(O)c1)Oc1cc(O)cc(/C=C/c2ccc(O)cc2)c1,IC50,[4],9.2 µg/mL
COc1cc(/C=C/c2cc(C(C)(C)C)c(O)c(C(C)(C)C)c2)cc(OC)c1,INH,[9],6.8 ×10⁴ L/mol/s
CCCCOc1ccc(/C=C\c2cc(OC)cc(OC)c2)cc1,pKi,[10],7.92
COc1ccc(/C=C\c2cc(Cl)cc(Cl)c2)cc1,pKi,[10],7.92
Oc1ccc(/C=C\c2cc(O)cc(O)c2)cc1 [CIS-RESVERATROL],pEC50,Liver microsome,3.62
same,INH,[9],7.4 ×10⁴ L/mol/s
Oc1cc(O)cc(/C=C/c2cc(O)c(O)c(O)c2)c1,inhibition,[11],92.9%
same,TIME,[12],48.1 h
Oc1ccc(/C=C/c2ccccc2)cc1,TIME,[5],1.7 ×10³ s
same,INH,[6],1 ×10⁴ L/mol/s
same,TIME,[7],2.1 ×10³ s
same,INH,[8],1.2 ×10⁴ L/mol/s
Oc1cc(O)cc(/C=C/c2cc(O)cc(O)c2)c1,inhibition,[11],46.5%
same,TIME,[12],3.7 h
CCOc1ccc(/C=C\c2cc(OC)cc(OC)c2)cc1,pKi,[10],7.92
COc1cc(/C=C\c2ccc(O)cc2)cc(OC)c1,INH,[9],6.3 ×10⁴ L/mol/s
"COc1ccc(/C=C\c2cc(OC)cc(OC)c2)cc1 [8Z-3,4',5-TRIMETHOXYSTILBENE]",pKi,[10],7.92
COc1ccc(/C=C/c2cc(O)cc(O)c2)cc1 [RESVERATROL 4'-METHYL ETHER],pEC50,Liver microsome,3.18
same,pEC50,[13],4.31
Oc1ccc(/C=C/c2ccc(O)cc2)cc1,INH,[1],8.2 ×10⁵ L/mol/s
same,TIME,[2],1.28 h
same,TIME,[3],0.308 h
same,TIME,[5],2.6 ×10³ s
same,INH,[6],0.8 ×10⁴ L/mol/s
same,TIME,[7],3.2 ×10³ s
same,INH,[8],1.4 ×10⁴ L/mol/s
Oc1ccc(/C=C/c2ccc(O)c(O)c2)cc1O,INH,[1],3.7 ×10⁵ L/mol/s
same,TIME,[2],1.78 h
same,TIME,[3],0.85 h
COc1cc(/C=C/c2ccc(O)c(OC)c2)ccc1O,INH,[1],4.1 ×10⁵ L/mol/s
same,TIME,[2],1.47 h
same,TIME,[3],0.85 h
COc1cc(/C=C/c2ccc(O)c(OC)c2)cc(OC)c1,INH,[9],10 ×10⁴ L/mol/s
COc1cc(/C=C/c2ccc(O)c(O)c2)cc(OC)c1,INH,[9],110 ×10⁴ L/mol/s
Oc1cc(O)cc(/C=C/c2ccccc2)c1,inhibition,[11],29.8%
same,TIME,[12],2.3 h
same,INH,[1],3.3 ×10⁵ L/mol/s
same,TIME,[2],0.717 h
same,TIME,[3],0.362 h
same,TIME,[5],2.4 ×10³ s
same,INH,[6],0.5 ×10⁴ L/mol/s
same,TIME,[7],1.5 ×10³ s
same,INH,[8],1.7 ×10⁴ L/mol/s
Clc1ccc(/C=C\c2cc(Cl)cc(Cl)c2)cc1,pKi,[10],7.92
Oc1ccc(/C=C/c2cc(O)cc(O)c2)cc1 [RESVERATROL],pEC50,Liver microsome,3.87
same,inhibition,[11],55.1%
same,TIME,[12],12.3 h
same,INH,[1],4.4 ×10⁵ L/mol/s
same,TIME,[2],0.967 h
same,TIME,[3],0.397 h
same,INH,[9],14 ×10⁴ L/mol/s
same,IC50,[4],106 µg/mL
same,TIME,[5],2.7 ×10³ s
same,INH,[6],0.7 ×10⁴ L/mol/s
same,TIME,[7],3.1 ×10³ s
same,INH,[8],1.3 ×10⁴ L/mol/s
Oc1ccc(/C=C/c2ccc(O)c(O)c2)cc1,INH,[1],4.2 ×10⁵ L/mol/s
same,TIME,[2],1.75 h
same,TIME,[3],0.62 h
same,TIME,[5],5.1 ×10³ s
same,TIME,[7],7.2 ×10³ s
Oc1ccc(/C=C/c2cc(O)c(O)c(O)c2)cc1O,IC50,[4],3 µg/mL
Oc1cc(O)cc(/C=C/c2ccc(O)c(O)c2)c1,inhibition,[11],67.1%
same,TIME,[12],60.3 h
COc1cc(/C=C/c2cc(O)c(O)c(C(C)(C)C)c2)cc(OC)c1,INH,[9],240 ×10⁴ L/mol/s
Oc1ccc(/C=C/c2cc(O)c(O)c(O)c2)cc1,inhibition,[11],92.9%
same,TIME,[12],43 h
COc1cc(/C=C/c2ccc(O)cc2)cc(OC)c1 [PTEROSTILBENE],pEC50,Liver microsome,3.45
same,INH,[9],13 ×10⁴ L/mol/s
same,pEC50,[13],4.52
Oc1ccc(/C=C/c2ccc(O)cc2O)cc1,INH,[1],3.3 ×10⁵ L/mol/s
same,TIME,[2],0.717 h
same,TIME,[3],0.458 h
Oc1cc(/C=C/c2cc(O)c(O)c(Br)c2)cc(O)c1O,IC50,[4],8.1 µg/mL
COc1cc(/C=C\c2ccc(O)c(OC)c2)cc(OC)c1,INH,[9],5.7 ×10⁴ L/mol/s
Oc1cc(/C=C/c2cc(O)c(O)c(O)c2)cc(O)c1O,IC50,[4],0.9 µg/mL
